Source: patent US5672597A, “Acetamide derivative” (Kaken Pharmaceutical Co., Ltd., priority 1992, dated 1997)
Where two headings read alike, the source gives them in different places.

Experiments:
[1] = tested on: ulcer induced by pylorus-ligation; experiment: Test of ulcer induced by pylorus-ligation; format: in vivo, wistar male rat; details: 14 h, read-out: Percentage of inhibition of ulcer formation
Experimental: (§1) With respect to anti-ulcer effect of the compounds having the general formula (I), there were carried out a test of ulcer induced by pylorus-ligation, which ulcer is induced mainly due to offensive factors; a test of ulcer induced by hydrochloric acid/ethanol, which ulcer is induced mainly due to defensive factors such as mucosal blood flow and mucus; and a test of ulcer induced by a stress of restraint plus water-immersion, which ulcer is induced due to both of offensive and defensive factors. Further, there were carried out a test of ulcer induced by acetic acid as a chronic ulcer model and a test of cure-prolonged ulcer induced by acetic acid. Also, there was examined an activity of increasing gastric mucosal blood flow, which activity brings about acceleration of regeneration of the gastric mucosa. As test compounds, hydrochloride salts were used.
The pylorus of a wistar male rat weighing 230 to 250 g, which had fasted for 48 hours, was ligated under ether-anesthesia, according to a usual method. After 14 hours, the animal was sacrificed by ether and the stomach was taken out therefrom.
The area of the ulcer generated on the fore-stomach was measured and the total area of the ulcer per rat was classified into the following six grades to give ulcer coefficients (Table 4).
Each of them was suspended in 0.5% methylcellulose solution and administered in the duodenum immediately after ligating the pylorus, in a dose of 100 mg/kg (body weight), respectively. To control group, only the medium for the medicament solution was administered in an amount of 0.25 ml/100 g (body weight).
The obtained results were subjected to the following formula to calculate a percentage of inhibition of ulcer formation. Six rats were used in each group for the test: [formula]

[2] = tested on: ulcer induced by hydrochloric acid/ethanol; experiment: Test of ulcer induced by hydrochloric acid/ethanol; format: in vivo, wistar male rat; details: 1 h, read-out: Percentage of inhibition of ulcer formation; for inhibition in vivo at 30 mg/kg: 30 mg/kg oral, hydrochloride salts
Experimental: as §1
To a wistar male rat weighing 220 to 240 g, which had fasted and thirsted for 24 hours, was orally administered 150 mM hydrochloric acid/70% ethanol solution in an amount of 5 ml/kg (body weight). After 1 hour, the animal was sacrificed by dislocating the cervical vertebrae and the stomach was taken out therefrom. The length of the ulcer generated on the glandular stomach was measured and the total thereof was regarded as the ulcer coefficient (mm).
To control group, only the medium for the medicament solution was orally administered in an amount of […] (body weight), 30 minutes before the administration of hydrochloric acid/ethanol.
(§2) The obtained results were subjected to the same formula as in the test of ulcer induced by pylorus-ligation, to calculate a percentage of inhibition of ulcer formation. Six rats were used in each group for the test.

[3] = tested on: ulcer induced by a stress of restraint plus water-immersion; experiment: Test of ulcer induced by a stress of restraint plus water-immersion; format: in vivo, ddY male mouse; details: 7 h, read-out: Percentage of inhibition of ulcer formation; for inhibition in vivo at 30 mg/kg: mouse, 30 mg/kg oral, 15 minutes before the load of the stress, hydrochloride salts
Experimental: as §1
A ddY male mouse weighing 20 to 25 g, which had fasted for 18 hours, was put into a stress cage, and was loaded with a stress by immersing it in a water tank at 23° C., to a level of a xiphoid. After 7 hours, the animal was sacrificed by dislocating the cervical vertebrae and the stomach was taken out therefrom. The length of the ulcer generated on the glandular stomach was measured and the total thereof was regarded as the ulcer coefficient (mm).
To control group, only the medium for the medicament solution was orally administered in an amount of 0.1 ml/10 g (body weight) 15 minutes before the load of the stress.
as §2

[4] = tested on: ulcer induced by acetic acid; experiment: Test of ulcer induced by acetic acid; format: in vivo, wistar male rat; details: rat, 15 mg/kg oral, twice a day from 2 days after generation of the ulcer
Experimental: as §1
Into the junction of the glandular stomach and the antrum, of a wistar male rat weighing 220 to 240 g, was injected subserosally […] of 20% acetic acid to generate an ulcer induced by acetic acid. […] Each of them was suspended in 0.5% methylcellulose solution, and administered orally in a dose of 15 mg/kg, twice a day (in the morning and in the evening) from 2 days after the generation of the ulcer for days, respectively. The animal was sacrificed by ether on the day after the last administration, and the stomach was taken out therefrom. The area of the ulcer was measured.
The obtained results were subjected to the following formula to calculate a percentage of improvement for curing ulcer. To control group, only the medium for the medicament solution was administered in an amount of 0.5 ml/100 g (body weight). Twenty rats were used in each group for the test. [formula]

[5] = tested on: cure-prolonged ulcer induced by acetic acid; experiment: Test of cure-prolonged ulcer induced by acetic acid; format: in vivo, wistar male rat; details: rat, 50 mg/kg oral, twice a day; cure prolonged with indomethacin 1 mg/kg s.c. for 13 days
Experimental: as §1
Into the junction of the glandular stomach and the antrum, of a wistar male rat weighing 220 to 240 g, was injected subserosally 30 μl of 20% acetic acid to generate an ulcer induced by acetic acid. From 2 days after the generation of the ulcer, indomethacin was injected subcutaneously in the regions of back of the rat in a dose of 1 mg/kg, once a day for 13 days to prolong the cure of the ulcer induced by acetic acid.
Each of them was suspended in 0.5% methylcellulose solution, and administered orally in a dose of 50 mg/kg, twice a day (in the morning and in the evening) from 13 days, respectively. The animal was sacrificed by ether on the day after the last administration, and the stomach was taken out therefrom. The area of the ulcer was measured. The obtained results were subjected to the following formula to calculate a percentage of improvement for curing ulcer. To control group, only the medium for the medicament solution was administered in an amount of 0.5 ml/100 g (body weight). Twenty rats were used in each group for the test. [formula]

[6] = tested on: gastric mucosal blood flow; experiment: Activity of increasing gastric mucosal blood flow; format: in vivo, wistar male rat; details: rat, urethane-anesthesia, 220 μg/kg intravenous, 60 minutes after administration
Experimental: as §1
An amount of the mucosal blood flow in the body of the stomach of a wistar male rat weighing 220 to 240 g under urethane-anesthesia was measured by means of a laser doppler blood flow meter. As test compounds, there were used the compound of the present invention and, as comparative compound, FRG-8813. Each of them was intravenously administered in a dose of 220 μg/kg. A percentage of increase of the blood flow was calculated 60 minutes after the administration. Five rats were used for each group for the test.

[7] = rat, 100 mg/kg, in the duodenum immediately after ligating the pylorus, hydrochloride salts
[8] = rat, 30 minutes before hydrochloric acid/ethanol

COc1ccc(CN2CCCCC2)cc1OC/C=C\CNC(=O)CSCCNC(=O)c1ccoc1 [Example 4, N-[4-[(2-methoxy-5-piperidinomethyl)phenoxy]-cis-2-butenyl]-2-[2-(3-furoylamino)ethylthio]acetamide]
inhibition in vivo at 100 mg/kg [1, 7]: 73% | inhibition in vivo at 30 mg/kg [2, 8]: 97% | inhibition in vivo at 30 mg/kg [3]: 75%

O=C(C[S+]([O-])Cc1ccco1)NC/C=C\COc1cc(CN2CCCCC2)ccn1 (centres unmarked) [FRG-8813, reference compound]
inhibition in vivo at 100 mg/kg [1, 7]: 27% | inhibition in vivo at 30 mg/kg [2, 8]: 70% | inhibition in vivo at 30 mg/kg [3]: 85% | Percentage of improvement for curing ulcer [4]: 12% | Percentage of improvement for curing ulcer [5]: -5% | Percentage of increase of blood flow [6]: 3%

CCCCNC(=S)NCCSCC(=O)NC/C=C\COc1cc(CN2CCCCC2)ccn1 [Example 95]
inhibition in vivo at 100 mg/kg [1, 7]: 73% | inhibition in vivo at 30 mg/kg [2, 8]: 72% | inhibition in vivo at 30 mg/kg [3]: 71%

COC(=O)NCCSCC(=O)NC/C=C\COc1cccc(CN2CCCCC2)c1 [Example 15, N-[4-[3-(piperidinomethyl)phenoxy]-cis-2-butenyl]-2-[2-(methoxycarbonylamino)ethylthio]acetamide]
inhibition in vivo at 100 mg/kg [1, 7]: 68% | inhibition in vivo at 30 mg/kg [2, 8]: 60% | inhibition in vivo at 30 mg/kg [3]: 98%

COC(=O)NCCSCC(=O)NCCCOc1cccc(CN2CCCCC2)c1 [Example 12, N-[3-[3-(piperidinomethyl)phenoxy]propyl]-2-[2-(methoxycarbonylamino)ethylthio]acetamide]
inhibition in vivo at 100 mg/kg [1, 7]: 77% | inhibition in vivo at 30 mg/kg [2, 8]: 68% | inhibition in vivo at 30 mg/kg [3]: 68%

C=CCOC(=O)NCC[S+]([O-])CC(=O)NC/C=C\COc1cccc(CN2CCCCC2)c1 (centres unmarked) [Example 81]
inhibition in vivo at 100 mg/kg [1, 7]: 76% | inhibition in vivo at 30 mg/kg [2, 8]: 69% | inhibition in vivo at 30 mg/kg [3]: 73%

NC(N)=Nc1nc(CSCCC(N)=NS(N)(=O)=O)cs1 [famotidine, reference compound]
inhibition in vivo at 100 mg/kg [1, 7]: 70% | inhibition in vivo at 100 mg/kg ([2]; rat, 100 mg/kg oral (cimetidine and famotidine), 30 minutes before hydrochloric acid/ethanol): 34% | inhibition in vivo at 30 mg/kg [3]: 100% | Percentage of improvement for curing ulcer [4]: 7% | Percentage of improvement for curing ulcer [5]: 26%

O=C(CSCCNC(=O)c1ccccn1)NCCCOc1cccc(CN2CCCCC2)c1 [Example 6]
inhibition in vivo at 100 mg/kg [1, 7]: 67% | inhibition in vivo at 30 mg/kg [2, 8]: 61% | inhibition in vivo at 30 mg/kg [3]: 88%

CNC(=S)NCCSCC(=O)NCCCOc1cccc(CN2CCCCC2)c1 [Example 16, N-[3-[3-(piperidinomethyl)phenoxy]propyl]-2-[2-(N'-methylthioureido)ethylthio]acetamide]
inhibition in vivo at 100 mg/kg [1, 7]: 70% | inhibition in vivo at 30 mg/kg [2, 8]: 62% | inhibition in vivo at 30 mg/kg [3]: 74%

COc1ccccc1C(=O)NCCSCC(=O)NC/C=C\COc1cccc(CN2CCCCC2)c1 [Example 73]
inhibition in vivo at 100 mg/kg [1, 7]: 60% | inhibition in vivo at 30 mg/kg [2, 8]: 67% | inhibition in vivo at 30 mg/kg [3]: 69%

CCC(=NC#N)NCCSCC(=O)NC/C=C\COc1cccc(CN2CCCCC2)c1 [Example 11, N-[4-[3-(piperidinomethyl)phenoxy]-cis-2-butenyl]-2-[2-[(N-cyanopropioimidoyl)amino]ethylthio]-acetamide]
inhibition in vivo at 100 mg/kg [1, 7]: 55% | inhibition in vivo at 30 mg/kg [2, 8]: 51% | inhibition in vivo at 30 mg/kg [3]: 70%

O=C(CSCCNC(=O)c1ccoc1)NC/C=C\COc1cccc(CN2CCCCC2)c1 [Example 10, N-[4-[3-(piperidinomethyl)phenoxy]-cis-2-butenyl]-2-[2-(3-furoylamino)ethylthio]acetamide]
inhibition in vivo at 100 mg/kg [1, 7]: 73% | inhibition in vivo at 30 mg/kg [2, 8]: 89% | inhibition in vivo at 30 mg/kg [3]: 73%

O=C(CSCCNC(=O)c1ccco1)NCCCOc1cccc(CN2CCCCC2)c1 [Example 5, N-[3-[3-(piperidinomethyl)phenoxy]propyl]-2-[2-(2-furoylamino)ethylthio]acetamide]
inhibition in vivo at 100 mg/kg [1, 7]: 57% | inhibition in vivo at 30 mg/kg [2, 8]: 97% | inhibition in vivo at 30 mg/kg [3]: 93%

O=C(CSCCNC(=O)c1ccccc1F)NCCCOc1cccc(CN2CCCCC2)c1 [Example 44]
inhibition in vivo at 100 mg/kg [1, 7]: 57% | inhibition in vivo at 30 mg/kg [2, 8]: 83% | inhibition in vivo at 30 mg/kg [3]: 77%

COC(=O)NCC[S+]([O-])CC(=O)NC/C=C\COc1cccc(CN2CCCCC2)c1 (centres unmarked) [Example 79]
inhibition in vivo at 100 mg/kg [1, 7]: 57% | inhibition in vivo at 30 mg/kg [2, 8]: 78% | inhibition in vivo at 30 mg/kg [3]: 67%

COc1ccccc1C(=O)NCCSCC(=O)NC/C=C\COc1cc(CN2CCCCC2)ccn1 [Example 91]
inhibition in vivo at 100 mg/kg [1, 7]: 69% | inhibition in vivo at 30 mg/kg [2, 8]: 87% | inhibition in vivo at 30 mg/kg [3]: 83%

COC(=O)NCC[S+]([O-])CC(=O)NCCCOc1cccc(CN2CCCCC2)c1 (centres unmarked) [Example 48]
inhibition in vivo at 100 mg/kg [1, 7]: 95% | inhibition in vivo at 30 mg/kg [2, 8]: 73% | inhibition in vivo at 30 mg/kg [3]: 100%

CN/C(=N/CCSCc1nc[nH]c1C)NC#N [cimetidine, reference compound]
inhibition in vivo at 100 mg/kg ([1]; Rattus norvegicus): 27% | inhibition in vivo at 100 mg/kg ([2]; Rattus norvegicus, po): 7% | inhibition in vivo at 100 mg/kg ([3]; Mus musculus, po): 61%

CCOC(=O)NCCSCC(=O)NC/C=C\COc1cccc(CN2CCCCC2)c1 [Example 14, N-[4-[3-(piperidinomethyl)phenoxy]-cis-2-butenyl]-2-[2-(ethoxycarbonylamino)ethylthio]acetamide]
inhibition in vivo at 100 mg/kg [1, 7]: 63% | inhibition in vivo at 30 mg/kg [2, 8]: 77% | inhibition in vivo at 30 mg/kg [3]: 91%

CCOC(=O)NCCSCC(=O)NCCCOc1cccc(CN2CCCCC2)c1 [Example 13, N-[3-[3-(piperidinomethyl)phenoxy]propyl]-2-[2-(ethoxycarbonylamino)ethylthio]acetamide]
inhibition in vivo at 100 mg/kg [1, 7]: 68% | inhibition in vivo at 30 mg/kg [2, 8]: 69% | inhibition in vivo at 30 mg/kg [3]: 89%

O=C(CSCCNC(=O)c1ccccc1)NC/C=C\COc1cccc(CN2CCCCC2)c1 [Example 8, N-[4-[3-(piperidinomethyl)phenoxy]-cis-2-butenyl]-2-[2-(benzoylamino)ethylthio]acetamide]
inhibition in vivo at 100 mg/kg [1, 7]: 50% | inhibition in vivo at 30 mg/kg [2, 8]: 90% | inhibition in vivo at 30 mg/kg [3]: 93%
